IC50 data for 27 compounds are collected here from patent US20100076015A1, “Aminopyridine Derivatives” (VANTIA LIMITED, priority 2008, published 2010).

SMILES strings stand for the structures.

The test addresses T1, Human KLK1 (Homo sapiens, UniProt P06870).
T1 construct: purchased Callbiochem (Calbiochem)
Description: Determination of the IC50 for KLK1 (fluorogenic substrate H-DVal-Leu-Arg-AFC). The class given is biochemical. To be noted: 37° C. The method in brief: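 IC50 values reflect residual human KLK1 activity, read as initial rate from optical absorbance change at 410 nm. Incubations ran at 37° C with H-DVal-Leu-Arg-AFC as substrate across a compound concentration series.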

T1 sequence (P06870 25-262): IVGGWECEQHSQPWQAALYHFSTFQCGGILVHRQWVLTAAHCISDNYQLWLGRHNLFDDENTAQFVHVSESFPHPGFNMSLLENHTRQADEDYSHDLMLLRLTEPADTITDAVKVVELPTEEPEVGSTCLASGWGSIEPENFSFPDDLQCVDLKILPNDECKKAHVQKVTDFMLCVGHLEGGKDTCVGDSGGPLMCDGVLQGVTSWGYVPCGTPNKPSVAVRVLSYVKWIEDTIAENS

Compound `CCN(C)[C@@H](C)C(=O)N[C@@H](Cc1ccc(F)c(F)c1)C(=O)NCc1ccc(N)nc1` [Example 345, (S)—N-[(S)-1-[(6-Amino-pyridin-3-ylmethyl)-carbamoyl]-2-(3,4-difluoro-phenyl)-ethyl]-2-(ethyl-methyl-amino)-propionamide] showed an IC50 of 0.0077 µM.
To `CCC(C)[C@@H](N)C(=O)N[C@@H](Cc1csc2ccccc12)C(=O)NCc1ccc(N)nc1` (stereo partly drawn) [Example 41, (R)-2-Amino-3-methyl-pentanoic acid {(S)-1-[(6-amino-pyridin-3-ylmethyl)-carbamoyl]-2-benzo[b]thiophen-3-yl-ethyl}-amide] belongs 0.00076 µM.
Compound `CCOc1ccc(C[C@H](NC(=O)c2[nH]c(C)cc2C)C(=O)NCc2ccc(N)nc2)cc1` [Example 255, 3,5-Dimethyl-1H-pyrrole-2-carboxylic acid [(S)-1-[(6-amino-pyridin-3-ylmethyl)-carbamoyl]-2-(4-ethoxy-phenyl)-ethyl]-amide] registered an IC50 of 0.105 µM.
Under `COc1ccc2[nH]c(C(=O)N[C@@H](Cc3cccc(C(F)(F)F)c3)C(=O)NCc3ccc(N)nc3C)cc2c1` [Example 310, 5-Methoxy-1H-indole-2-carboxylic acid [(S)-1-[(6-amino-2-methyl-pyridin-3-ylmethyl)-carbamoyl]-2-(3-trifluoromethyl-phenyl)-ethyl]-amide] stands 0.0489 µM; under `CCN(CC)[C@@H](C)C(=O)N[C@@H](Cc1cccc(Cl)c1)C(=O)NCc1ccc(N)nc1` [Example 410, (S)—N-[(S)-1-[(6-Amino-pyridin-3-ylmethyl)-carbamoyl]-2-(3-chloro-phenyl)-ethyl]-2-diethylamino-propionamide], 0.0026 µM.
Regarding `CCC(C)[C@@H](N)C(=O)N[C@@H](CC1CCCC2CCCCC21)C(=O)NCc1ccc(N)nc1C` (stereo partly drawn) [Example 187, (R)-2-Amino-3-methyl-pentanoic acid [(S)-1-[(6-amino-2-methyl-pyridin-3-ylmethyl)-carbamoyl]-2-(decahydro-naphthalen-1-yl)-ethyl]-amide], 0.00071 µM corresponded to half-maximal inhibition (IC50).
Compound `Cc1nc(N)ccc1CNC(=O)[C@H](Cc1ccccc1C(F)(F)F)NC(=O)c1cc2ccccc2[nH]1` [Example 322, 1H-Indole-2-carboxylic acid [(S)-1-[(6-amino-2-methyl-pyridin-3-ylmethyl)-carbamoyl]-2-(2-trifluoromethyl-phenyl)-ethyl]-amide] had an IC50 of 0.0124 µM.
In turn, `CCN(C)[C@@H](CO)C(=O)N[C@@H](Cc1ccc(F)c(F)c1)C(=O)NCc1ccc(N)nc1` [Example 361, (S)—N-[(S)-1-[(6-Amino-pyridin-3-ylmethyl)-carbamoyl]-2-(3,4-difluoro-phenyl)-ethyl]-2-(ethyl-methyl-amino)-3-hydroxy-propionamide] displayed an IC50 of 0.0556 µM.
With `CN1CCC[C@@H]1C(=O)N(C)[C@@H](Cc1ccccc1)C(=O)NCc1ccc(N)nc1` [Example 225, (R)-1-Methyl-pyrrolidine-2-carboxylic acid {(S)-1-[(6-amino-pyridin-3-ylmethyl)-carbamoyl]-2-phenyl-ethyl}-methyl-amide], 0.0511 µM corresponded to half-maximal inhibition (IC50).
With `Cc1nc(N)ccc1CNC(=O)[C@H](Cc1ccc(F)cc1)NC(=O)[C@H]1CCCN1C` [Example 204, (R)-1-Methyl-pyrrolidine-2-carboxylic acid [(S)-1-[(6-amino-2-methyl-pyridin-3-ylmethyl)-carbamoyl]-2-(4-fluoro-phenyl)-ethyl]-amide], the IC50 amounted to 0.0059 µM.
To `Cc1nc(N)ccc1CNC(=O)[C@H](Cc1ccc(Cl)c(Cl)c1)NC(=O)[C@H](N)C1CCCCC1` [Example 198, (S)-2-((R)-2-Amino-2-cyclohexyl-acetylamino)-N-(6-amino-2-methyl-pyridin-3-ylmethyl)-3-(3,4-dichloro-phenyl)-propionamide] belongs 0.028 µM.
`CC(C)N1CCC[C@@H]1C(=O)N[C@@H](Cc1ccc(Cl)cc1Cl)C(=O)NCc1ccc(N)nc1` [Example 127, (R)-1-Isopropyl-pyrrolidine-2-carboxylic acid [(S)-1-[(6-amino-pyridin-3-ylmethyl)-carbamoyl]-2-(2,4-dichloro-phenyl)-ethyl]-amide] registered an IC50 of 0.0009 µM.
Under `Nc1ccc(CNC(=O)[C@H](Cc2cccc(Cl)c2)NC(=O)[C@H]2CCCCN2)cn1` [Example 77, (R)-Piperidine-2-carboxylic acid [(S)-1-[(6-amino-pyridin-3-ylmethyl)-carbamoyl]-2-(3-chloro-phenyl)-ethyl]-amide] stands 0.0029 µM.
As for `CC(C)[C@H](C(=O)N[C@@H](Cc1ccc(F)c(F)c1)C(=O)NCc1ccc(N)nc1)N(C)C` [Example 359, (R)—N-[(S)-1-[(6-Amino-pyridin-3-ylmethyl)-carbamoyl]-2-(3,4-difluoro-phenyl)-ethyl]-2-dimethylamino-3-methyl-butyramide], the IC50 is 0.005 µM.
To `Cc1nc(N)ccc1CNC(=O)[C@H](Cc1cccc2ccccc12)NC(=O)c1cc2cc(F)ccc2[nH]1` [Example 305, 5-Fluoro-1H-indole-2-carboxylic acid {(S)-1-[(6-amino-2-methyl-pyridin-3-ylmethyl)-carbamoyl]-2-naphthalen-1-yl-ethyl}-amide] belongs 0.119 µM.
In turn, `CCC(C)[C@@H](C(=O)N[C@@H](Cc1ccc(F)c(F)c1)C(=O)NCc1ccc(N)nc1)N(C)C(C)C` (stereo partly drawn) [Example 349, (S)-2-(Isopropyl-methyl-amino)-3-methyl-pentanoic acid [(S)-1-[(6-amino-pyridin-3-ylmethyl)-carbamoyl]-2-(3,4-difluoro-phenyl)-ethyl]-amide] yielded an IC50 of 0.0078 µM.
To `Cc1nc(N)ccc1CNC(=O)[C@H](Cc1ccc(F)c(F)c1)NC(=O)[C@@H](C)N1CCCCC1` [Example 431, (R)—N-[(S)-1-[(6-Amino-2-methyl-pyridin-3-ylmethyl)-carbamoyl]-2-(3,4-difluoro-phenyl)-ethyl]-2-piperidin-1-yl-propionamide] belongs 0.0506 µM.
To `Nc1ccc(CNC(=O)[C@H](Cc2ccc(F)c(F)c2)NC(=O)CN2CCc3ccccc3C2)cn1` [Example 172, (S)—N-(6-Amino-pyridin-3-ylmethyl)-3-(3,4-difluoro-phenyl)-2-(2-3,4-dihydro-1H-isoquinolin-2-yl-acetylamino)-propionamide] belongs 0.0127 µM; to `CCC(C)[C@@H](C(=O)N[C@@H](Cc1ccc(F)c(F)c1)C(=O)NCc1ccc(N)nc1)N(C)C(C)C` (stereo partly drawn) [Example 353, (S)-2-(Isopropyl-methyl-amino)-3-methyl-pentanoic acid [(S)-1-[(6-amino-pyridin-3-ylmethyl)-carbamoyl]-2-(3,4-difluoro-phenyl)-ethyl]-amide], 0.0078 µM; to `COc1ccc2[nH]c(C(=O)N[C@@H](Cc3cccc(Cl)c3)C(=O)NCc3ccc(N)nc3C)cc2c1` [Example 316, 5-Methoxy-1H-indole-2-carboxylic acid [(S)-1-[(6-amino-2-methyl-pyridin-3-ylmethyl)-carbamoyl]-2-(3-chloro-phenyl)-ethyl]-amide], 0.0767 µM.
In turn, `NCC(=O)N[C@@H](C(=O)NCc1ccc(N)nc1)C(C1CCCCC1)C1CCCCC1` [Example 220, (R)-2-(2-Amino-acetylamino)-N-(6-amino-pyridin-3-ylmethyl)-3,3-dicyclohexyl-propionamide] had an IC50 of 0.0555 µM.
On to `Cc1cc[nH]c1C(=O)N[C@@H](Cc1ccc(F)c(F)c1)C(=O)NCc1ccc(N)nc1C` [Example 286, 3-Methyl-1H-pyrrole-2-carboxylic acid [(S)-1-[(6-amino-2-methyl-pyridin-3-ylmethyl)-carbamoyl]-2-(3,4-difluoro-phenyl)-ethyl]-amide], for which it took 0.0043 µM to reach half-maximal inhibition (IC50).
`Cc1nc(N)ccc1CNC(=O)[C@H](Cc1ccc(Cl)c(Cl)c1)NC(=O)[C@H]1CCc2ccccc2N1` [Example 202, (R)-1,2,3,4-Tetrahydro-quinoline-2-carboxylic acid [(S)-1-[(6-amino-2-methyl-pyridin-3-ylmethyl)-carbamoyl]-2-(3,4-dichloro-phenyl)-ethyl]-amide]: the IC50 is 0.0225 µM.
Under `Nc1ccc(CNC(=O)[C@H](NC(=O)[C@@H]2CCCN2)C(C2CCCCC2)C2CCCCC2)cn1` [Example 215, (S)-Pyrrolidine-2-carboxylic acid {(R)-1-[(6-amino-pyridin-3-ylmethyl)-carbamoyl]-2,2-dicyclohexyl-ethyl}-amide] stands 0.0126 µM; under `COC(=O)CN1CCC[C@@H]1C(=O)N[C@@H](Cc1ccc(F)c(F)c1)C(=O)NCc1ccc(N)nc1` [Example 134, {(R)-2-[(S)-1-[(6-Amino-pyridin-3-ylmethyl)-carbamoyl]-2-(3,4-difluoro-phenyl)-ethylcarbamoyl]-pyrrolidin-1-yl}-acetic acid methyl ester], 0.0135 µM.
In turn, `CN1CCCC[C@@H]1C(=O)N[C@@H](Cc1ccc(F)c(F)c1)C(=O)NCc1ccc(N)nc1` [Example 144, (R)-1-Methyl-piperidine-2-carboxylic acid [(S)-1-[(6-amino-pyridin-3-ylmethyl)-carbamoyl]-2-(3,4-difluoro-phenyl)-ethyl]-amide] displayed an IC50 of 0.0209 µM.
To `Nc1ccc(CNC(=O)[C@H](CC2CCCC3CCCCC32)NC(=O)[C@H]2CCCN2)cn1` (stereo partly drawn) [Example 15, (R)-Pyrrolidine-2-carboxylic acid [(S)-1-[(6-amino-pyridin-3-ylmethyl)-carbamoyl]-2-(decahydro-naphthalen-1-yl)-ethyl]-amide] belongs 0.0012 µM.
